Test results as given in US20120178147A1, “MICROBIAL CULTURES AND METHODS FOR ANAEROBIC BIOREMEDIATION” (priority 2009, published 2012).

Tested on: sediment microcosms
Test: Effect of TCC, TCS and BES on TCE dechlorination in sediment microcosms and cultures derived from them
Type: cell-based
Conditions: for effect on TCE reductive dechlorination in microcosms: addition of 20 μg/L TCC and TCS; for effect on TCE dechlorination rates in sediment-free cultures: cultures from microcosms amended with TCC, TCS, BES
Procedure: In this study, microcosm is defined as: anaerobic airtight serum bottles with sediment samples, anaerobic medium, electron donor, and a chlorinated compound used as an electron acceptor. Four microcosms were set up in the anaerobic glove chamber with H2 concentration of 3% (Coy laboratory products Inc. Grass Lake, Mich.). Ten gram of homogeneously mixed sediment from either core A or core D were transferred independently into a 160 ml sterile serum bottle, and 90 ml anaerobic media with vitamin solution and 2 mM lactate were added. One hundred μL of 20 mg/L TCC stock solution in methanol and 100 μL of 20 mg/L TCS stock solution were added by pipette (Eppendorf, Calif.) to two of the four microcosms. Microcosms were capped with thick black butyl rubber stoppers and aluminum crimps. 4.5 μL pure TCE was injected with airtight syringe (Hamilton Company, Reno, Nev.) into each serum bottle. On day 130, in order to inhibit methane production in the sediment microcosms, 25 mM BES was added in to sediment-A microcosm and sediment-D microcosm with TCC and TCS with airtight syringe (Hamilton Company, Reno, Nev.). Microcosms were stored in the dark and incubated at 30° C.
Production of Sediment-Free Cultures. To establish sediment-free cultures from core A and core D sediment microcosms, the microcosms were shaken vigorously, and the solids were allowed to settle down. Then, using 1-inch, 21-gauge sterile needles, […] liquid (10 ml) were transferred into 89 ml sterile medium with the following contents: anaerobic medium, ATCC vitamin mix, and vitamin B12, in 160-ml serum bottles. Then, 1 ml each of 500-mM lactate stock solution and 35-μL TCE stock solution (1 mol/L in methanol) were added to form a 100 ml culture in 160-ml serum bottle. Three sediment cultures were derived from each sediment microcosm, and 12 sediment-free cultures were produced (FIG. 1). For organizational purposes, we refer to the sediment-free cultures generated from sediment-A microcosms as SCA and the sediment free cultures generated from sediment-D microcosms as DehaloR̂2, in the figures herein, the DehaloR̂2 are referred to as “SCD”. Thus, the term “SCD” and DehaloR̂2 are used interchangeably herein as the composition “SCD” was renamed “DehaloR̂2” during the course of investigation. The sediment-free cultures were kept in the dark and incubated at 30° C. After all the chlorinated electron acceptors were consumed, the cultures were re-spiked with TCE and electron donors.
BES (2-bromoethanesulfonate) is an efficient inhibitor for the metabolism of methanogens in methanogenetic cultures because it is a structural analog and competitive inhibitor of coenzyme M, which is only found in methanogens (Dimarco et al., 1990; Sparling and Daniels, 1987). Different concentrations of BES have been used by researchers. […] In this study, in order to determine if the cause for incomplete reductive dechlorination was competition for electron donor between methanogens and TCE dechlorinating microorganisms in the microcosms, I added 25 mM BES, 70 μmol of TCE, and 5 mM lactate into two sediment microcosms, sediment-A and sediment-D with TCC and TCS. In two other sediment microcosms, I added 70 μmol of TCE and 5 mM lactate without BES.

| Compound | effect on TCE reductive dechlorination in microcosms | effect on TCE dechlorination rates in sediment-free cultures |
| --- | --- | --- |
| O=C(Nc1ccc(Cl)cc1)Nc1ccc(Cl)c(Cl)c1 [TCC, 3-(4-chlorophenyl)-1-(3,4-dichlorphenyl) urea] | can be neglected | slow down TCE dechlorination rates |
| Oc1cc(Cl)ccc1Oc1ccc(Cl)cc1Cl [TCS, 5-chloro-2-[2,4-dichloro-phenoxy]-phenol] | can be neglected | slow down TCE dechlorination rates |
